Patent publication US4244956A, “Method of treating inflammation” (Forsyth Dental Infirmary for Children, priority 1979, dated 1981)

Assays:
[1] = target: T1, prostaglandin synthetase (Ovis aries, UniProt P05979); assay: Inhibition of prostaglandin synthesis, sheep vesicular gland microsomal preparation, oxygen electrode; format: biochemical; conditions: sheep vesicular gland microsomes, pH 8.0, inhibitor added 1 minute before arachidonate; oxygen uptake; read-out: [I]50 Values for Inhibition of Prostaglandin Synthesis
T1 construct: sheep vesicular gland microsomal preparation; from tissue; host or cells: sheep vesicular gland microsomes
T1 sequence (P05979 25-600): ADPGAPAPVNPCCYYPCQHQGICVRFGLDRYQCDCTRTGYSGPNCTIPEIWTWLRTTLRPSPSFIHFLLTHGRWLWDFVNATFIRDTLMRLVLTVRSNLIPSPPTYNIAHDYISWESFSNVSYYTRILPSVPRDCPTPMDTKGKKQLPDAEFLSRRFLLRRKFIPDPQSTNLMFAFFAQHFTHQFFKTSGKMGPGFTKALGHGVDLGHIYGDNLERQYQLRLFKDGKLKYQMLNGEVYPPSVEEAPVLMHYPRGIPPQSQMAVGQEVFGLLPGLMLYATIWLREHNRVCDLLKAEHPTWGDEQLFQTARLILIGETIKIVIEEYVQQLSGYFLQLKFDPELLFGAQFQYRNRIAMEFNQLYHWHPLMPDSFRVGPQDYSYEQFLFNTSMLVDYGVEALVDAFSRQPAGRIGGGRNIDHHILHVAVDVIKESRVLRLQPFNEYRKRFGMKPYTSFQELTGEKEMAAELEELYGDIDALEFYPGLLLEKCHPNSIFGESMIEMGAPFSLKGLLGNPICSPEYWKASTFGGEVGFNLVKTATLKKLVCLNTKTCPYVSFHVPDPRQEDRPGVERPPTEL
Description: A commonly used model system for examination of prostaglandin synthetase inhibition is the sheep vesicular gland microsomal preparation (Wallach, D. P. and Daniels, E. G., Biochim. Biophys. Acta., 231: 445-457 (1971)). Prostaglandin synthetase activity was determined by following oxygen tension in a closed reaction chamber using a Clark-type oxygen electrode. For each assay, 2.9 ml of 0.1 M tris HCl buffer, pH 8.0, 10 ul of 0.2 M phenol, and 50 ul of enzyme suspension (2.5 mg microsomal preparation) were added to the reaction chamber. 10 ul of inhibitor in ethanol were added 1 minute prior to initiation of the reaction. The reaction was initiated by addition of 10 ul of 3.7 mM arachidonate solution. The concentration of an inhibitor that reduced prostaglandin synthesis by 50% ([I]50) was determined from plots of activity v. log concentration of inhibitor.

[2] = system: platelet aggregation; assay: Inhibition of arachidonate-induced platelet aggregation in platelet-rich plasma (aggregometer); format: cell-based; conditions: 37° C, 50 ul of 10 mM arachidonate, read-out: [I]50, concentration of inhibitor which prevented irreversible aggregation 50% of the time
Description: Inhibition of platelet aggregation by prostaglandin synthetase inhibitors is of potential value in treating thromboembolic disorders. Aggregation experiments were performed in a single-channel Chrono-log Platelet Aggregometer at 37° C. To 500 ul of platelet-rich plasm were added 2 ul of inhibitor solution and 50 ul of 10 mM arachidonate. The [I]50 value was defined as the concentration of inhibitor which prevented irreversible aggregation 50% of the time. The [I]50 of 2-(phenylmethoxy)phenol was 0.57 uM.

| IC50 [1] [µM] | IC50 [2] [µM] | SMILES |
| --- | --- | --- |
| 4.7 |  | Cc1ccccc1COc1ccccc1O [2-(2-methylphenylmethoxy)phenol] |
| 3.3 |  | Oc1ccccc1OCc1cccc(Cl)c1 [2-(3-chlorophenylmeythoxy)phenol, 2-(3-chlorophenylmethoxy)phenol] |
| 5.2 | 0.57 | Oc1ccccc1OCc1ccccc1 [2-(phenylmethoxy)phenol] |
